According to PubChem BioAssay (NCI):
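Interpolation was linear, between the two tested concentrations surrounding the appropriate level; five concentrations were tested over 48 hours in 96-well plates. GI50: concentration for 50% inhibition of growth. TGI marks complete inhibition of growth.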

How the values were obtained:
Test in all cases: growth of human tumour cells (NCI), 48 h
DU-145 prostate = tested on: DU-145 prostate
HOP-92 NSCLC = tested on: HOP-92 NSCLC
MCF7 breast = tested on: MCF7 breast
MDA-MB-435 = tested on: MDA-MB-435
MDA-N = tested on: MDA-N
PC-3 prostate = tested on: PC-3 prostate
SK-OV-3 ovarian = tested on: SK-OV-3 ovarian
T-47D breast = tested on: T-47D breast
HS 578T breast = tested on: HS 578T breast
DLD-1 colon = tested on: DLD-1 colon
RXF-631 renal = tested on: RXF-631 renal
KM20L2 colon = tested on: KM20L2 colon

Compound	TGI (DU-145 prostate)	TGI (HOP-92 NSCLC)	TGI (MCF7 breast)	TGI (MDA-MB-435)	TGI (MDA-N)	TGI (PC-3 prostate)	TGI (SK-OV-3 ovarian)	TGI (T-47D breast)	TGI (HS 578T breast)	further results
COc1ccc2c(c1)CC[C@@H]1[C@@H]2CC[C@]2(C)C(=O)/C(=C/c3ccc(O)c(OC)c3)C[C@@H]12	> 100 µM	> 100 µM	> 100 µM	> 100 µM	> 100 µM	> 100 µM	> 100 µM	> 100 µM	–	–
COc1ccc2nc3ccccc3c(NCc3ccc(C)cc3)c2c1	7.68 µM	3.12 µM	–	2.89 µM	–	4.49 µM	8.41 µM	4.42 µM	–	GI50 (DU-145 prostate): 2.64 µM; GI50 (HOP-92 NSCLC): 1.27 µM; GI50 (MDA-MB-435): 1.44 µM; GI50 (PC-3 prostate): 1.64 µM; GI50 (SK-OV-3 ovarian): 2.58 µM; GI50 (T-47D breast): 1.89 µM
C[C@]12CCC(=O)C=C1CC[C@@H]1[C@@H]2[C@@H](O)C[C@@]2(C)[C@H]1CC[C@]2(O)C(=O)COC(=O)C1CCCC1	> 100 µM	> 100 µM	> 100 µM	> 100 µM	> 100 µM	> 100 µM	> 100 µM	> 100 µM	> 100 µM	–
C[N+](C)(CCO)CCN1c2ccccc2Sc2ccccc21	> 10 µM	–	> 10 µM	> 10 µM	> 10 µM	> 10 µM	> 10 µM	> 10 µM	> 10 µM	–
Cc1ccc(SSCCCCCS(=O)O)cc1	–	–	–	–	–	–	> 100 µM	–	–	TGI (DLD-1 colon): > 100 µM; TGI (RXF-631 renal): > 100 µM
Nc1nc(=O)n(CC(O)CO)s1 (stereo unspecified)	–	–	–	–	–	–	–	–	–	TGI (DLD-1 colon): > 100 µM; TGI (KM20L2 colon): > 100 µM; TGI (RXF-631 renal): > 100 µM
O=C(COc1ccc(Cl)cc1Cl)N/N=C/C=C/c1ccc([N+](=O)[O-])o1	–	–	> 100 µM	> 100 µM	> 100 µM	> 100 µM	59.6 µM	> 100 µM	7.4 µM	–
Cn1c(=O)c2c(nc(NCCNc3nc4c(c(=O)n(C)c(=O)n4C)n3C)n2C)n(C)c1=O	> 100 µM	> 100 µM	–	> 100 µM	> 100 µM	> 100 µM	–	> 100 µM	> 100 µM	–
O=C(NNC(=O)c1nsc2ccccc12)c1ccc(Cl)cc1	–	32.8 µM	–	–	–	–	–	–	–	TGI (KM20L2 colon): 53.8 µM
COc1ccc(C2C(C=O)C(N3CCN(C)CC3)=Nc3nc4ccccc4n32)cc1 (stereo unspecified)	49.3 µM	24.3 µM	36.3 µM	39.7 µM	–	36.9 µM	–	40.6 µM	> 100 µM	–
Fc1c(F)c(C(F)(F)F)c(F)c(F)c1N/N=C/c1cn(Cc2ccccc2)c2ccccc12	> 100 µM	60.2 µM	69.5 µM	54.5 µM	–	79.2 µM	48.4 µM	83.6 µM	> 100 µM	–
N#C[S-].[Ce+3].c1cnc2c(c1)ccc1cccnc12.c1cnc2c(c1)ccc1cccnc12.c1cnc2c(c1)ccc1cccnc12	–	22.7 µM	–	–	–	–	13.5 µM	–	–	GI50 (KM20L2 colon): 1.33 µM; TGI (KM20L2 colon): 14.7 µM
O=S(O)c1cc(Cl)cc(Cl)c1OCc1ccccc1	–	–	–	–	–	–	> 100 µM	–	–	TGI (DLD-1 colon): > 100 µM; TGI (RXF-631 renal): > 100 µM
CC(=O)C1=C(O)CCC1=O	> 100 µM	> 100 µM	> 100 µM	> 100 µM	–	> 100 µM	> 100 µM	> 100 µM	> 100 µM	–
NC(CC(=O)O)(Cc1ccccc1)C(=O)O (stereo unspecified)	> 100 µM	> 100 µM	> 100 µM	> 100 µM	> 100 µM	> 100 µM	> 100 µM	> 100 µM	> 100 µM	–
CNC(=O)Nc1ccccc1	> 100 µM	> 100 µM	> 100 µM	> 100 µM	> 100 µM	> 100 µM	–	> 100 µM	> 100 µM	–
